Source: publication PMC10498667 (Chemical Science, 2023)
Where two headings read alike, the source gives them in different places.

Experiments:
Type in all cases: biochemical
[1] = tested on: preformed Aβ42 and Aβ40 aggregates; assay: Disaggregation experiments with preformed Aβ aggregates; settings: Aβ42 and Aβ40, with and without Cu(II), Zn(II); flavonoid 50 μM; 24 h
Protocol: To verify whether a series of nine flavonoids can modulate the aggregation of Aβ with and without metal ions, the molecular weight (MW) distribution and morphology of the resultant Aβ species were determined by gel electrophoresis with western blotting (gel/western blot) using an anti-Aβ antibody (6E10) and transmission electron microscopy (TEM), respectively. Two types of experiments were carried out employing two major Aβ isoforms, i.e., Aβ42 and Aβ40:[25] (i) inhibition studies to identify the effect of 1–5, 1a, 1b, 4a, and 4b on the formation of Aβ aggregates; (ii) disaggregation studies to evaluate if the flavonoids with reactivities towards Aβ aggregation in inhibition studies can disassemble preformed Aβ aggregates or modulate their further aggregation, as illustrated in Fig. 4 and S5–S9. ^† Moreover, the solutions containing the flavonoids and Cu(II) were probed by electronic absorption (Abs) spectroscopy to monitor their metal binding. […] As expected, no Abs change of 1a and 4a composed of methoxy groups on the A ring was detected by addition of Cu(II). […]
Ab Aggregation Experiments. Ab was dissolved in ammonium hydroxide [1% w/w NH4OH (aq)] and the resulting solution was aliquoted, lyophilized overnight, and stored at –80 °C. A stock solution of Ab was then prepared by dissolving the lyophilized peptide with NH4OH (1% w/w, aq; 10 µL) and diluting with ddH2O. All Ab samples were prepared following previously reported procedures.21,22 The concentration of the peptide solution was determined by measuring its […]
solution (20 mM HEPES, pH 7.4, 150 mM NaCl) was used for preparing Ab samples. For the inhibition studies, flavonoids (final concentration, 50 µM; 1% v/v DMSO) were added to the samples of Ab (25 µM) in the absence and presence of CuCl2 or ZnCl2 (25 µM) followed by incubation for 24 h at 37 °C with constant agitation. For the disaggregation studies, Ab (25 µM) was incubated with and without CuCl2 or ZnCl2 (25 µM) for 24 h at 37 °C with constant agitation to generate preformed Ab aggregates. The resultant Ab aggregates were then treated with flavonoids (50 µM) and incubated for additional 24 h with constant agitation. […]

[2] = target: T1, Electric eel acetylcholinesterase (eeAChE) (Electrophorus electricus, UniProt O42275); assay: Fluorometric AChE activity assay
T1 construct: purchased Invitrogen (AChE assay kit)
T1 sequence (O42275 24-633): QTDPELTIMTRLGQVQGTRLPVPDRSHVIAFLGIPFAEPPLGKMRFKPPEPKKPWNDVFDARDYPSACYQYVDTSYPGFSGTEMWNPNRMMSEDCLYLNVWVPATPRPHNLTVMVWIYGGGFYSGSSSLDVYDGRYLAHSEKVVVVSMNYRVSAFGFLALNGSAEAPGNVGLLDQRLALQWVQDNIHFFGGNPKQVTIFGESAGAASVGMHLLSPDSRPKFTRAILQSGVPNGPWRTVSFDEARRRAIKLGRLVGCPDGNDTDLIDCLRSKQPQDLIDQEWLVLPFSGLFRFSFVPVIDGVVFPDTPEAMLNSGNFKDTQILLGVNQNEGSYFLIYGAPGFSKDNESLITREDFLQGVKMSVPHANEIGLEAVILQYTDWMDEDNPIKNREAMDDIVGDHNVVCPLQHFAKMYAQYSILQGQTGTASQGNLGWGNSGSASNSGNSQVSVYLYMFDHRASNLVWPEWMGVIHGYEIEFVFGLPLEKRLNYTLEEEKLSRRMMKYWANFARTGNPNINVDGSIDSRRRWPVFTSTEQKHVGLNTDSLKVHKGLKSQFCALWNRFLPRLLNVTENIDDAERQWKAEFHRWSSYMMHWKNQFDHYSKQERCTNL
Source text: Inhibiting the activity of AChE can maintain a proper level of ACh under dysregulated cholinergic conditions.[10,11] Thus, the inhibitory capability of flavonoids against AChE was investigated by a previously reported fluorescent AChE assay with slight modifications.[60] […] The inclusion of three hydroxyl groups on the A ring is critical for controlling the catalytic activity of AChE, as previously reported,[49] whereas the incorporation of a chloro substituent, with three hydroxyl groups, and methoxy moieties instead of hydroxyl groups on the A ring can decrease such inhibitory activity. Flavonoids 2, 3, and 1b over 1 illustrates the importance of the position of hydroxyl groups on the A ring and the isoflavone variation in directing the flavonoids' ability to inhibit the activity of AChE. […]
All experiments were performed in triplicate.
AChE Activity Assay. The AChE inhibitory activity of flavonoids was measured by a fluorometric AChE assay kit (Invitrogen) following the manufacturer ’s protocol with slight modifications.
Electric eel acetylcholinesterase (eeAChE) was dissolved and diluted with a working solution. The eeAChE solution (50 µL) was added into a 96-well plate. Various concentrations of flavonoids were then introduced into the 96-well plate. The final concentrations of flavonoids were as follow: […]
µM). After shaking, the mixture of eeAChE and flavonoids was pre-incubated for 15 min. A reaction mixture containing acetylcholine, an AChE probe, and AbRedTM was added into the 96-well plate to initiate the reaction. The AChE activity was calculated based on the fluorescence intensity (lex/lem = 571/585 nm) of the wells that was detected after 15 min incubation. Data were normalized to the control (no inhibitor). All experiments were performed in triplicate. […]
For the disaggregation studies, Ab (25 µM) was incubated with and without CuCl2 or ZnCl2 (25 µM) for 24 h at 37 °C with constant agitation to generate preformed Ab aggregates. The resultant Ab aggregates were then treated with flavonoids (50 µM) and incubated for additional 24 h with constant agitation. For the additional disaggregation experiments, preformed Ab42 aggregates (25 µM) or Ab42 seeds (10% v/v) with or without metal ions (25 µM for CuCl2 and ZnCl2) were incubated with flavonoids (50 µM) for 24 h with constant agitation. The resultant Ab aggregates were then treated with freshly prepared Ab42

Aβ42 = target: T2, Aβ42 (Homo sapiens, UniProt P05067); assay: Dot blot assay with anti-oligomer (A11) and anti-fibril (OC) antibodies; settings: flavonoid 200 μM, up to 24 h
T2 construct: purchased Peptide Institute, Inc. (Osaka, Japan)
T2 sequence (P05067 672-713 limits assumed): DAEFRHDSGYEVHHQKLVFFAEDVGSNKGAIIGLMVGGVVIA
Source text: Moreover, to investigate the effects of the flavonoids on the oligomerization and fibrilization of metal-free Aβ42 and metal–Aβ42, we performed the dot blot assay employing anti-oligomer (A11) and anti-fibril (OC) antibodies,[23] as illustrated in Fig. S12. ^† It should be noted that the thioflavin-T (ThT) assay utilized for monitoring the formation of β-sheet-rich aggregates cannot be carried out under our experimental conditions since the absorption windows of 4, 5, and 4b interfere with the excitation and emission wavelengths of ThT (Fig. S13 ^†). […]
Dot Blot Assay. The samples containing Ab42 (100 µM) with or without CuCl2 or ZnCl2 (100 µM) in the absence and presence of flavonoids (200 µM; 1% v/v DMSO) were prepared in 20 mM HEPES, pH 7.4, 150 mM NaCl and incubated for various time points (0, 1, 2, 3, 4, 6, 12, and 24 h). […] The membrane was incubated with a primary antibody [i.e., 6E1026 for Ab species (1:2,000), A1126 for Ab oligomers (1:1,000; Invitrogen, Carlsbad, CA, USA), or OC26 for Ab fibrils (1:2,000; Merch Millipore, Billerica, MA, USA)] in the solution of BSA (2% w/v in TBS-T) for 4 h at room temperature. […] A homemade ECL kit21–23 was used to visualize the results on a ChemiDoc MP Imaging System.
The intensity observed from A11- or OC-detectable Ab species was quantified, relative to that detected from 6E10, by the ImageJ software. […]

[3] = fluorometric assay, eeAChE, read-out: IC50 for AChE inhibition
[4] = Cu(II)–Aβ42 or Zn(II)–Aβ42 100 μM

SMILES	effect on preformed metal-free Aβ and metal–Aβ aggregates [1]	IC50 [2, 3] [µM]	A11- and OC-detectable signals (oligomers and fibrils) (Aβ42; [4])	A11- and OC-detectable signals (oligomers and fibrils) (Aβ42; metal-free Aβ42 100 μM)	IC50 [2] [µM]	inhibitory activity against AChE (IC50 could not be obtained) ([2]; fluorometric assay, eeAChE)
O=c1cc(-c2ccccc2)oc2ccc(O)c(O)c12 [compound 3, 5,6-dihydroxyflavone]	the reactivity was shown only in the presence of metal ions	4.51	–	–	–	–
O=c1c(-c2ccccc2)coc2cc(O)c(O)c(O)c12 [4b, 5,6,7-trihydroxyisoflavone]	could disassemble preformed metal-free Aβ and metal–Aβ aggregates	1.4	gradually decreased signal intensities	the formation of Aβ oligomers and fibrils were reduced	–	–
O=c1cc(-c2ccccc2)oc2c(Cl)c(O)c(O)c(O)c12 [compound 5, 8-chlorobaicalein]	could disassemble preformed metal-free Aβ and metal–Aβ aggregates	12.3	–	the formation of Aβ oligomers and fibrils were reduced	–	–
O=c1c(-c2ccc(O)c(O)c2)coc2cc(O)c(O)c(O)c12 [compound 6, 3-(3,4-dihydroxyphenyl)-5,6,7-trihydroxy-4H-chromen-4-one]	affected their corresponding preformed Aβ aggregates and seeds	0.19	significantly decreased A11- and OC-detectable signal intensities	significantly decreased A11- and OC-detectable signal intensities	–	–
O=c1cc(-c2ccccc2)oc2cc(O)c(O)cc12 [compound 2, 6,7-dihydroxyflavone]	less noticeably affected	–	not significantly varied	not significantly varied	4.18	–
O=c1cc(-c2ccccc2)oc2cc(O)c(O)c(O)c12 [compound 4, baicalein]	could disassemble preformed metal-free Aβ and metal–Aβ aggregates	–	–	the formation of Aβ oligomers and fibrils were reduced	1.95	–
O=c1cc(-c2ccccc2)oc2cc(O)cc(O)c12 [compound 1, chrysin]	less noticeably affected	–	not significantly varied	not significantly varied	–	negligible inhibitory activity
